Results reported in PubChem BioAssay (NCI).
“And” between values parts separate entries of the source, which are not always exact repeats. Identical values can stand only once.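 How tested: cells in 96-well plates exposed to compound for 48 hours at five concentrations. GI50 = concentration required for 50% inhibition of growth. TGI denotes the concentration required for complete inhibition of growth.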

Tests used:
Test in all cases: NCI anticancer screen, dose series, 48 h
[1] = test system: A549 NSCLC
[2] = test system: BT-549 breast
[3] = test system: COLO 205 colon
[4] = test system: DU-145 prostate
[5] = test system: MALME-3M melanoma
[6] = test system: MDA-MB-435
[7] = test system: SR leukemia
[8] = test system: TK-10 renal
[9] = test system: UO-31 renal
[10] = test system: LOX IMVI melanoma

| Compound | TGI [1] [µM] | TGI [2] [µM] | TGI [3] | TGI [4] [µM] | TGI [5] | TGI [6] [µM] | TGI [7] [µM] | TGI [8] | TGI [9] [µM] | TGI [10] | GI50 [1] [µM] | GI50 [4] [µM] | GI50 [7] [µM] | GI50 [2] [µM] | GI50 [3] [µM] | GI50 [10] [µM] | GI50 [5] [µM] | GI50 [6] [µM] | GI50 [8] [µM] | GI50 [9] [µM] |
| --- | --- | --- | --- | --- | --- | --- | --- | --- | --- | --- | --- | --- | --- | --- | --- | --- | --- | --- | --- | --- |
| COc1ccc(CC(CO)NC(=O)OCc2ccccc2)cc1Oc1ccc(CC(CO)NC(=O)OCc2ccccc2)cc1 (centres undefined) | 27.2 | 32.3 | 64.9 µM | 46 | 31.4 µM | > 100 | > 100 | 41.5 µM | 31.4 |  |  |  |  |  |  |  |  |  |  |  |
| COc1cc2c(cc1OCCCCOc1cc(-c3ccc(F)cc3)nc(C)n1)N=C[C@@H]1CCCN1C2=O | 10.8 | 2.28 | 1.17 µM | 50 | 1.82 µM | 1.42 | 0.363 | 0.487 µM | 12 | 0.663 µM |  |  |  |  |  |  |  |  |  |  |
| O=[N+]([O-])C(=C(N1CCCCC1)N1CCCCC1)/C(Cl)=C(\Cl)Br | > 100 | > 100 | 38.7 µM | > 100 | 64.9 µM | 61.7 | 30.9 | 72 µM | > 100 | 44.9 µM |  |  |  |  |  |  |  |  |  |  |
| CN(C)c1nc(=NCc2ccncc2)ss1 | > 100 | 44 | > 100 µM | > 100 | > 31.6 µM | > 100 | 44.6 | > 100 µM | > 80.9 | 31.1 µM | > 100 | > 100 | 19 |  |  |  |  |  |  |  |
| COc1ccc2c(c1)O/C(=C\c1cccc(OCC(=O)Nc3nc4c(s3)CCCC4)c1)C2=O | > 100 | > 100 | > 100 µM | 19.7 | 5.34 µM | > 100 |  | > 100 µM | 3.15 | 3.32 µM | 29 | 5.01 |  | > 51.1 | > 100 | 1.16 | 2.39 | > 43.3 | > 100 | 1.69 |
| Cc1ccc(S(=O)(=O)N2CCSCCSCCSCCSCC2)cc1 | > 100 | 44 | > 100 µM | > 100 | > 100 µM | > 100 | > 100 | > 74.5 µM | > 81.3 | > 100 µM |  |  |  |  |  |  |  |  |  |  |
| O=C1C(c2c(O)[nH]c3ccc(S(=O)(=O)O)cc23)=Nc2ccccc21 | > 100 | > 100 | > 100 µM | > 100 | > 100 µM | > 100 | > 100 | > 100 µM | > 100 | > 100 µM |  |  |  |  |  |  |  |  |  |  |
| CCNC(=O)Nc1ccccn1 | > 100 | > 100 | > 100 µM | > 100 | > 100 µM | > 100 | > 100 | > 100 µM | > 100 |  |  |  |  |  |  |  |  |  |  |  |
| Cc1cn2c(/C=C3/C(=O)Nc4cccc(Cl)c43)c(Cl)nc2s1 | > 100 | > 100 |  | > 100 | > 100 µM | > 100 | > 100 | 37.4 µM | > 100 | > 100 µM |  |  |  |  |  |  |  |  |  |  |
| CC1(C)C(c2ccccc2)=[N+]([O-])C(C)(C)N1O | > 10 | > 10 | > 10 µM | > 10 | > 10 µM | > 10 | > 10 | > 10 µM |  | > 10 µM |  |  |  |  |  |  |  |  |  |  |
| COc1cccc(-c2cc(=O)c3c(C)cc(C)nc3[nH]2)c1 | > 100 | > 100 | 0.637 µM | > 72.1 | > 100 µM | 0.398 | 0.513 | > 100 µM | > 100 | > 100 µM |  |  |  |  |  |  |  |  |  |  |
| CN(C)NC(=S)Nc1ccccc1Br | > 100 | > 100 | > 100 µM | > 100 | > 100 µM | > 100 | > 100 | > 100 µM | > 100 | > 100 µM |  |  |  |  |  |  |  |  |  |  |
| C=C(C)CCC(=O)[C@](C)(O)[C@H]1[C@H](O)C[C@@]2(C)[C@@H]3CCc4c(cc(OC5OC(CO)C(O)C(O)C5O)c(O)c4C)C3(C)C(=O)C[C@]12C (some centres undefined) | > 100 | > 100 | > 100 µM | > 100 | > 100 µM | > 100 | > 100 | > 100 µM | > 100 | > 100 µM |  |  |  |  |  |  |  |  |  |  |
| COC(=O)NN(C(=O)OC)c1c(-c2ccccc2)nc(SC)n1N | > 100 | > 100 | > 100 µM | > 100 | > 100 µM | > 100 | > 100 | > 100 µM | > 100 | > 100 µM |  |  |  |  |  |  |  |  |  |  |
| Nc1c2ccccc2nc2c1ccc1ncccc12 | > 100 | > 100 | > 100 µM | > 100 | 27 µM | > 100 | > 100 | > 100 µM | 40.2 | 53.5 µM |  |  |  |  |  |  |  |  |  |  |
| C=C1C(=O)OC2/C=C(\CO)C(OC(C)=O)CC(O)/C(C)=C/C(OC(=O)C(C)CC)C12 (centres undefined) | > 100 | 36.9 | 28.8 µM and 24.3 µM | 43.8 | 31.2 µM and 32 µM | 47.6 | 39.2 | 36 µM and 38.7 µM | > 100 | 29.3 µM and 38.3 µM |  |  |  |  |  |  |  |  |  |  |
| C=C(Cl)/C(=C\Cl)CCC(Br)C(C)C (centres undefined) | > 100 | > 100 | > 100 µM | > 100 |  | > 100 | > 100 | > 100 µM | > 100 | 31.4 µM |  |  |  |  |  |  |  |  |  |  |
| Cc1cc(-c2nc3c(O)cccc3s2)ccc1N | 47.9 | 58.3 | > 100 µM | > 100 |  | 38.2 | 93.8 | 74.8 µM | 36.6 | 40.1 µM |  |  |  |  |  |  |  |  |  |  |
| O=C(NC(Cc1c[nH]c2ccccc12)C(=O)O)/C(=C/c1ccccc1O)NC(=O)c1ccccc1 (centres undefined) | > 100 | 52.5 | > 100 µM | > 100 | > 100 µM | > 100 | > 100 | > 100 µM | 18.7 | > 100 µM |  |  |  |  |  |  |  |  |  |  |
| O=C1/C(=C/c2ccccc2S)N=C(c2ccccc2)N1c1nc2ccc(Sc3ccccc3)cc2[nH]1 | > 100 | 61.1 | 34.6 µM | > 100 | > 100 µM | 29.7 |  | 70.3 µM | > 100 | > 100 µM |  |  |  |  |  |  |  |  |  |  |
